viability, T/C and IC50 data for six compounds are collected here from PubChem BioAssay AID1918947 (Molecular Pharmacology Branch, DTP, NCI, 2023).

pIC50: −log10 of the molar value. “And” between values parts separate entries of the source, which are not always exact repeats. Equal entries are not always repeated. Some results are limits rather than exact numbers.

This assay relates to A498 complex spheroid viability. Kind of assay: Anticancer human tumor A498 cell line growth inhibition.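 On all read-outs here: spheroids exposed to agents for seven days before readout.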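 On viability, T/C: 100% = DMSO vehicle-treated spheroids.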 The settings on record: for viability, T/C: stronger effect = lower value. The method in brief:
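Complex spheroids of tumor cells with HUVEC and human MSCs, exposed to iadademstat combined with other agents. Each agent tested in half-log steps from near clinical Cmax (else 10 microM top), DMSO ≤0.25%.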

The mark [1] stands for this setting: curve of first compound, second compound 0.1 µM.
Setting [2] is: curve of first compound, second compound 0.316 µM.
Setting [3] is: curve of first compound, second compound 1 µM.
Setting [4] is: curve of first compound, second compound 3.16 µM.
[5] abbreviates: curve of first compound, second compound 10 µM.
[6] abbreviates: second compound 0.1 µM, first compound 0.0316 µM.
Setting [7] is: second compound 0.1 µM, first compound 0.1 µM.
[8] abbreviates: second compound 0.1 µM, first compound 0.316 µM.
Where [9] appears, read: second compound 0.1 µM, first compound 1 µM.
The mark [10] stands for this setting: second compound 0.1 µM, first compound 3.16 µM.
Setting [11] is: second compound 0.1 µM, first compound 10 µM.
Where [12] appears, read: second compound 0.316 µM, first compound 0.0316 µM.
[13] abbreviates: second compound 0.316 µM, first compound 0.1 µM.
Where [14] appears, read: second compound 0.316 µM, first compound 0.316 µM.
The mark [15] stands for this setting: second compound 0.316 µM, first compound 1 µM.
Where [16] appears, read: second compound 0.316 µM, first compound 3.16 µM.
Where [17] appears, read: second compound 0.316 µM, first compound 10 µM.
Where [18] appears, read: second compound 1 µM, first compound 0.0316 µM.
Setting [19] is: second compound 1 µM, first compound 0.1 µM.
[20] abbreviates: second compound 1 µM, first compound 0.316 µM.
The mark [21] stands for this setting: second compound 1 µM, first compound 1 µM.
Where [22] appears, read: second compound 1 µM, first compound 3.16 µM.
The mark [23] stands for this setting: second compound 1 µM, first compound 10 µM.
Where [24] appears, read: second compound 3.16 µM, first compound 0.0316 µM.
Where [25] appears, read: second compound 3.16 µM, first compound 0.1 µM.
Setting [26] is: second compound 3.16 µM, first compound 0.316 µM.
Setting [27] is: second compound 3.16 µM, first compound 1 µM.
The mark [28] stands for this setting: second compound 3.16 µM, first compound 3.16 µM.
Setting [29] is: second compound 3.16 µM, first compound 10 µM.
The mark [30] stands for this setting: second compound 10 µM, first compound 0.0316 µM.
Where [31] appears, read: second compound 10 µM, first compound 0.1 µM.
The mark [32] stands for this setting: second compound 10 µM, first compound 0.316 µM.
Where [33] appears, read: second compound 10 µM, first compound 1 µM.
Where [34] appears, read: second compound 10 µM, first compound 3.16 µM.
The mark [35] stands for this setting: second compound 10 µM, first compound 10 µM.

For orientation: viability, T/C means the ratio of treated to control. What is called pIC50 is the negative decadic logarithm of the IC50, by convention in mol/L. For `NC1CC1c1ccc(-c2cccc(O)c2)cc1` (configuration not stated), the viability, T/C reads like this: (compound 0.316 µM) 104% [middle of 25 runs]; (compound 10 µM) 94.1% [middle of 25 runs]. Besides, the pIC50 (compound alone, run of 12/07/2021) was under 5.00.
As for `O=C(C=Cc1cccc(S(=O)(=O)Nc2ccccc2)c1)NO`, the viability, T/C is 94% and 91% (compound 0.00949 µM); 82.5% and 80.6% (compound 0.03 µM); 70.8% and 65.3% (compound 0.0949 µM); 53.1% and 46.8% (compound 0.3 µM); 33.8% and 34.2% (compound 0.949 µM); 12.4% and 8.72% (compound 3 µM). Also, the negative logarithm of the IC50 (pIC50) (curve of compound) is 6.44 and 6.55.
As for `Nc1ncn(C2CC(O)C(CO)O2)c(=O)n1` (configuration not stated), the viability, T/C reads like this: (compound 0.00316 µM) 104% and 103%; (compound 0.01 µM) 103% and 107%; (compound 0.0316 µM) 97.1% and 92.8%; (compound 0.1 µM) 84.8% and 88.6%; (compound 0.316 µM) 68.6% and 82.9%; (compound 1 µM) 52.9% and 73.7%. Moreover, under “curve of compound”, the negative logarithm of the IC50 (pIC50) is under 6.00.
On to `CC1(C)CCC(CN2CCN(c3ccc(C(=O)NS(=O)(=O)c4ccc(NCC5CCOCC5)c([N+](=O)[O-])c4)c(Oc4cnc5[nH]ccc5c4)c3)CC2)=C(c2ccc(Cl)cc2)C1` + NC1CCC(NC2CC2c2ccccc2)CC1, for which the negative logarithm of the IC50 (pIC50) was 5.44 under setting [1]; 5.41 under setting [2]; 5.46 under setting [3]; 5.57 under setting [4]; 5.71 under setting [5]. Moreover, the viability, T/C runs as follows: under setting [6], 87.7%; under setting [7], 89.2%; under setting [8], 85.5%; under setting [9], 76.4%; under setting [10], 57.5%; under setting [11], 3.91%. For the same compound, the viability, T/C under setting [12] is 87.2%; the viability, T/C under setting [13] is 92.6%; the viability, T/C under setting [14] is 91.3%; the viability, T/C under setting [15] is 79.1%; the viability, T/C under setting [16] was 60.7%; the viability, T/C under setting [17] is 4.52%. The viability, T/C was 84.5% under setting [18]; 86.2% under setting [19]; 85.1% under setting [20]; 76.9% under setting [21]; 54.3% under setting [22]; 3.45% under setting [23]. In addition, the viability, T/C under setting [24] is 82.5%; the viability, T/C under setting [25] is 85.5%; the viability, T/C under setting [26] was 80%; the viability, T/C under setting [27] was 70.2%; the viability, T/C under setting [28] is 47%; the viability, T/C under setting [29] was 3.58%. Moreover, the viability, T/C is, setting by setting: under setting [30], 81.1%; under setting [31], 75.2%; under setting [32], 76.5%; under setting [33], 65.2%; under setting [34], 39.2%; under setting [35], 2.98%.
As for `CC1COCCN1c1cc(C2(S(C)(=N)=O)CC2)nc(-c2ccnc3[nH]ccc23)n1` (configuration not stated) + NC1CCC(NC2CC2c2ccccc2)CC1, the pIC50 is, setting by setting: under setting [1], 6.19; under setting [2], 6.11; under setting [3], 6.17; under setting [4], 6.23; under setting [5], 6.29. Moreover, the viability, T/C reads like this: under setting [6], 91.8%; under setting [7], 89%; under setting [8], 70.7%; under setting [9], 37.2%; under setting [10], 18.2%; under setting [11], 12%. Further, the viability, T/C is, setting by setting: under setting [12], 99%; under setting [13], 96.9%; under setting [14], 82.8%; under setting [15], 40.6%; under setting [16], 18.9%; under setting [17], 11.2%. In addition, the viability, T/C under setting [18] was 86.8%; the viability, T/C under setting [19] was 94%; the viability, T/C under setting [20] was 72.4%; the viability, T/C under setting [21] is 37.6%; the viability, T/C under setting [22] was 19.6%; the viability, T/C under setting [23] was 11.4%. Further, the viability, T/C was 81.3% under setting [24]; 85.6% under setting [25]; 69.7% under setting [26]; 32.7% under setting [27]; 17.6% under setting [28]; 12.3% under setting [29]. In addition, the viability, T/C under setting [30] was 76.6%; the viability, T/C under setting [31] was 75.9%; the viability, T/C under setting [32] was 60.8%; the viability, T/C under setting [33] was 33.9%; the viability, T/C under setting [34] was 17.9%; the viability, T/C under setting [35] is 12.8%.
For the compound `COc1cc(C2c3cc4c(cc3C(OC3OC5COC(C)OC5C(O)C3O)C3COC(=O)C23)OCO4)cc(OC)c1O` (configuration not stated) + NC1CCC(NC2CC2c2ccccc2)CC1, the negative-log IC50 (pIC50) is, setting by setting: under setting [1], under 5.52; under setting [2], under 5.52; under setting [3], under 5.52; under setting [4], 5.63; under setting [5], 5.85. Moreover, the viability, T/C (second compound 0.1 µM, first compound 0.00949 µM) was 81.8%; the viability, T/C (second compound 0.1 µM, first compound 0.03 µM) was 67.1%; the viability, T/C (second compound 0.1 µM, first compound 0.0949 µM) was 59.9%; the viability, T/C (second compound 0.1 µM, first compound 0.3 µM) is 58.5%; the viability, T/C (second compound 0.1 µM, first compound 0.949 µM) is 55.7%; the viability, T/C (second compound 0.1 µM, first compound 3 µM) was 54.5%. Besides, the viability, T/C was 79.4% (second compound 0.316 µM, first compound 0.00949 µM); 71.2% (second compound 0.316 µM, first compound 0.03 µM); 70.3% (second compound 0.316 µM, first compound 0.0949 µM); 67.5% (second compound 0.316 µM, first compound 0.3 µM); 59.6% (second compound 0.316 µM, first compound 0.949 µM); 57.5% (second compound 0.316 µM, first compound 3 µM). In addition, the viability, T/C runs as follows: (second compound 1 µM, first compound 0.00949 µM) 82%; (second compound 1 µM, first compound 0.03 µM) 69.3%; (second compound 1 µM, first compound 0.0949 µM) 68.6%; (second compound 1 µM, first compound 0.3 µM) 62.9%; (second compound 1 µM, first compound 0.949 µM) 57.6%; (second compound 1 µM, first compound 3 µM) 57.2%. For the same compound, the viability, T/C reads like this: (second compound 3.16 µM, first compound 0.00949 µM) 72.5%; (second compound 3.16 µM, first compound 0.03 µM) 69.6%; (second compound 3.16 µM, first compound 0.0949 µM) 63.5%; (second compound 3.16 µM, first compound 0.3 µM) 60.7%; (second compound 3.16 µM, first compound 0.949 µM) 52.5%; (second compound 3.16 µM, first compound 3 µM) 49.2%. Also, the viability, T/C reads like this: (second compound 10 µM, first compound 0.00949 µM) 64.3%; (second compound 10 µM, first compound 0.03 µM) 66.8%; (second compound 10 µM, first compound 0.0949 µM) 61.5%; (second compound 10 µM, first compound 0.3 µM) 63.4%; (second compound 10 µM, first compound 0.949 µM) 48.8%; (second compound 10 µM, first compound 3 µM) 45.3%.
